From the kinase profiling compilation of Christmann-Franck et al. (2016)

Legend:
Experiment in all cases: radiometric filter-binding kinase assay
CDK2 CCNA2 (human) = CDK2 CCNA2 (human) (UniProt P20248+P24941)
MAPK3 (human) = MAPK3 (human) (UniProt P27361)
MKNK2 (human) = MKNK2 (human) (UniProt Q9HBH9)
EPHB1 (human) = EPHB1 (human) (UniProt P54762)
TTK (human) = TTK (human) (UniProt P33981)
MAP2K1 (human) = MAP2K1 (human) (UniProt Q02750)
MAPK14 (human) = MAPK14 (human) (UniProt Q16539)
MAPK15 (human) = MAPK15 (human) (UniProt Q8TD08)
PRKAA1 or PRKAA2 (rat) = conditions: accession and sequence are those of the human protein
RPS6KA3 KD1 KD2 (human) = RPS6KA3 KD1 KD2 (human) (UniProt P51812)
RPS6KA1 KD1 KD2 (human) = RPS6KA1 KD1 KD2 (human) (UniProt Q15418)
IKBKE (human) = IKBKE (human) (UniProt Q14164)
PAK7 (human) = PAK7 (human) (UniProt Q9P286)
Chain of PAK7 (human) (Q9P286 whole entry, looked up): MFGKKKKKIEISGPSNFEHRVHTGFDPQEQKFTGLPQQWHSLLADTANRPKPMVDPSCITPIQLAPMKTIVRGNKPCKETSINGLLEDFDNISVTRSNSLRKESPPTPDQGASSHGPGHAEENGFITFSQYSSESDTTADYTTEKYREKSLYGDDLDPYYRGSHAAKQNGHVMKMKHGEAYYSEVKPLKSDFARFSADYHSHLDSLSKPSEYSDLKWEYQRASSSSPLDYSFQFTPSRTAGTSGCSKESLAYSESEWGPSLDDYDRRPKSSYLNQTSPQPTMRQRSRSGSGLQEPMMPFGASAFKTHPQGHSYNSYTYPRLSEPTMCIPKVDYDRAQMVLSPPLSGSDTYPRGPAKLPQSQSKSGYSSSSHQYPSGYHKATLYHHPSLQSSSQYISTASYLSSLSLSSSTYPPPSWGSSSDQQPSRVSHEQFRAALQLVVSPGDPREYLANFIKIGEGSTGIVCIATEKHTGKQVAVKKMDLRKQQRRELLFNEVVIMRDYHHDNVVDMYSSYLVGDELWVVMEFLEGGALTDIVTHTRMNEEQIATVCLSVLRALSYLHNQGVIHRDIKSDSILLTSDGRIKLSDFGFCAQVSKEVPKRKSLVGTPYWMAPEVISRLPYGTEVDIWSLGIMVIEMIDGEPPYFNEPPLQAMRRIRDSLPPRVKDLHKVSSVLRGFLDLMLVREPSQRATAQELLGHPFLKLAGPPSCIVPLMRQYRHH

EPHB4 (human) = EPHB4 (human) (UniProt P54760)
EPHA4 (human) = EPHA4 (human) (UniProt P54764)
RIPK2 (human) = RIPK2 (human) (UniProt O43353)
NEK2 (human) = NEK2 (human) (UniProt P51955)
CSNK1D (human) = CSNK1D (human) (UniProt P48730)
FLT1 (human) = FLT1 (human) (UniProt P17948)
BTK (human) = BTK (human) (UniProt Q06187)
[1] = tested on: AKT2 (human), P31751 [S474D]
CHEK2 (human) = CHEK2 (human) (UniProt O96017)
RPS6KA5 KD1 KD2 (human) = RPS6KA5 KD1 KD2 (human) (UniProt O75582)
PRKACA (human) = PRKACA (human) (UniProt P17612)
MAPK1 (human) = MAPK1 (human) (UniProt P28482)
MAPKAPK3 (human) = MAPKAPK3 (human) (UniProt Q16644)
Chain of MAPKAPK3 (human) (Q16644 whole entry, looked up): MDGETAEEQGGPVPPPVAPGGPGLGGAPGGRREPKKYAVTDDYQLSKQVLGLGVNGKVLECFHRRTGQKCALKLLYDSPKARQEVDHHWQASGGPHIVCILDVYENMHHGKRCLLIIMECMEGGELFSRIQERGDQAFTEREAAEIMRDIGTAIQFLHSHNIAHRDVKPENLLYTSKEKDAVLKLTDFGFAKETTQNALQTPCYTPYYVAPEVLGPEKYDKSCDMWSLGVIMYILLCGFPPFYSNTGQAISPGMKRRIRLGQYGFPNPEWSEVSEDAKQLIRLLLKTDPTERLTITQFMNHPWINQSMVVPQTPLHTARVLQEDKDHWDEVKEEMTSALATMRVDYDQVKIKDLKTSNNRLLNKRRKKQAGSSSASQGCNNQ

IKBKB (human) = IKBKB (human) (UniProt O14920)
Chain of IKBKB (human) (O14920 whole entry, looked up): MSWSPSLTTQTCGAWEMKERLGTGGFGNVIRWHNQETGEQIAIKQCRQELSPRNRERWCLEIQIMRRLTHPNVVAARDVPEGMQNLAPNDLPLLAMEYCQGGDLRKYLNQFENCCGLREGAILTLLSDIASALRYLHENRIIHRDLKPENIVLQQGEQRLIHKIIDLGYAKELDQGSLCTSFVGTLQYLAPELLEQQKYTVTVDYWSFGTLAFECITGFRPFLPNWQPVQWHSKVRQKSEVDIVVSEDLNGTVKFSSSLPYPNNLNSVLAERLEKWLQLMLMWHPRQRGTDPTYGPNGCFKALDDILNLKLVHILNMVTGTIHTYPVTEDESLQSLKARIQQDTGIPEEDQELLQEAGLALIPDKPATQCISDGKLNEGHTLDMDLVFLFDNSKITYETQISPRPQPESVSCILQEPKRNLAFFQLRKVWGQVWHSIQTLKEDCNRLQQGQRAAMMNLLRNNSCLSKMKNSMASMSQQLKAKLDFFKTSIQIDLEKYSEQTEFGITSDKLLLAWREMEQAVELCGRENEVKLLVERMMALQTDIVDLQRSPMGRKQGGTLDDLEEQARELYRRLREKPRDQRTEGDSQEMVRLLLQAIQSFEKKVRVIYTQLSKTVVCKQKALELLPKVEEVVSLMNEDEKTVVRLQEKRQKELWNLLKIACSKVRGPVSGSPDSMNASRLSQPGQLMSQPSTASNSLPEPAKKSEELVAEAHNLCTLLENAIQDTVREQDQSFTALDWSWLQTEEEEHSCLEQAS

PIM2 (human) = PIM2 (human) (UniProt Q9P1W9)
PLK1 (human) = PLK1 (human) (UniProt P53350)
[2] = tested on: RPS6KB1 (human), P23443 [T412E]
SYK (human) = SYK (human) (UniProt P43405)
CSK (human) = CSK (human) (UniProt P41240)
Chain of CSK (human) (P41240 whole entry, looked up): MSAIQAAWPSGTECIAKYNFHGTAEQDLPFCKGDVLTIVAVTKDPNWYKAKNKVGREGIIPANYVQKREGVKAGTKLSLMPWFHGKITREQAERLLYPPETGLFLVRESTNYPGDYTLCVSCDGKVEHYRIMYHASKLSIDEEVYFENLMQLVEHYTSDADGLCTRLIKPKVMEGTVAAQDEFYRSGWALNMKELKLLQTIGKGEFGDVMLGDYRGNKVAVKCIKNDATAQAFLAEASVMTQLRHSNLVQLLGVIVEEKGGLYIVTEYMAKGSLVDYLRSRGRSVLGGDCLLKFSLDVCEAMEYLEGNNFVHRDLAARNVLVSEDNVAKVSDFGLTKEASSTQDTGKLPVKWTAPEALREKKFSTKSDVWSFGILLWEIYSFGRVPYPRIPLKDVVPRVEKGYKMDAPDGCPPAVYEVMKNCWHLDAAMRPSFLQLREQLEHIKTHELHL

INSRR (human) = INSRR (human) (UniProt P14616)
Chain of INSRR (human) (P14616 whole entry, looked up): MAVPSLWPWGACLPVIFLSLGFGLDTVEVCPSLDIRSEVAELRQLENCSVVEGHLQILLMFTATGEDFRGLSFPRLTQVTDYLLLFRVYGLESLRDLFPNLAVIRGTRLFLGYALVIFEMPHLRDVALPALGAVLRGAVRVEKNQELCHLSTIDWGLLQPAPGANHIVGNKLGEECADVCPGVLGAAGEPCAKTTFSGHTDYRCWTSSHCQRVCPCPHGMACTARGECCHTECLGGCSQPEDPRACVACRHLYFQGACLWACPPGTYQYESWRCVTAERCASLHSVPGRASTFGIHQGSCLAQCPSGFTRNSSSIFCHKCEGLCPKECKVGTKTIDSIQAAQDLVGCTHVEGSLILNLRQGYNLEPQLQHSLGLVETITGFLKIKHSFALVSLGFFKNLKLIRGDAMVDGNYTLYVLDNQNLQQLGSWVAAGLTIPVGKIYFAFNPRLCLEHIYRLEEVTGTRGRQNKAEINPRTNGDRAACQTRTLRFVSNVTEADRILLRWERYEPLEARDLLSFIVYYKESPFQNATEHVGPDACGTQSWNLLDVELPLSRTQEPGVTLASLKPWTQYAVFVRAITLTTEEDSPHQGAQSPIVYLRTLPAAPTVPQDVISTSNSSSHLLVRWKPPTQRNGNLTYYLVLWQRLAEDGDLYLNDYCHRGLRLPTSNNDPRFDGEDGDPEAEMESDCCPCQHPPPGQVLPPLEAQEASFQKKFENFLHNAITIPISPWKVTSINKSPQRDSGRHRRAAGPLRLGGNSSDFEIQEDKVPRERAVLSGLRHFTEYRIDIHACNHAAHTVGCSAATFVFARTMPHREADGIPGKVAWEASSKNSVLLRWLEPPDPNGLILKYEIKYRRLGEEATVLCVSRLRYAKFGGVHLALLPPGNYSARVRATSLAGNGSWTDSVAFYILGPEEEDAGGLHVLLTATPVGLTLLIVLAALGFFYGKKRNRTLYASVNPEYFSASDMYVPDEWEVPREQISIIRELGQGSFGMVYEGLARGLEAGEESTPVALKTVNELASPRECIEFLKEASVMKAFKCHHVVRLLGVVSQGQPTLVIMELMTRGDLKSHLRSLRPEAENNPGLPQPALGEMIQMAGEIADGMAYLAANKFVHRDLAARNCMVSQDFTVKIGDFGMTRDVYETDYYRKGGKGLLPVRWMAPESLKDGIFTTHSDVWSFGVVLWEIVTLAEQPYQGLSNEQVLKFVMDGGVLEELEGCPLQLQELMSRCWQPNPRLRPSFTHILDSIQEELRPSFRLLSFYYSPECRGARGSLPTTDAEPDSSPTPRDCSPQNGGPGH

SRC (human) = SRC (human) (UniProt P12931)
NEK6 (human) = NEK6 (human) (UniProt Q9HC98)

Chain of MAPK3 (human) (P27361 whole entry, looked up): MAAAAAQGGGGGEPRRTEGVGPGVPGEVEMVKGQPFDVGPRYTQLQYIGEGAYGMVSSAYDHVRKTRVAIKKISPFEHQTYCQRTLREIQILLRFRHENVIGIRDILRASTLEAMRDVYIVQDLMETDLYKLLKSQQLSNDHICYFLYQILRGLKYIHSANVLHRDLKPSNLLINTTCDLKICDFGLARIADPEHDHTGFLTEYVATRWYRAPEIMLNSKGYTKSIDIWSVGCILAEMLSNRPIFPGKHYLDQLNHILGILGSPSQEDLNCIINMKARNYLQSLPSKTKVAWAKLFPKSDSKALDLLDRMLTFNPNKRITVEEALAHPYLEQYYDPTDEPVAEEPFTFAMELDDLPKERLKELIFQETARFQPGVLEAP
Chain of MAPK14 (human) (Q16539 whole entry, looked up): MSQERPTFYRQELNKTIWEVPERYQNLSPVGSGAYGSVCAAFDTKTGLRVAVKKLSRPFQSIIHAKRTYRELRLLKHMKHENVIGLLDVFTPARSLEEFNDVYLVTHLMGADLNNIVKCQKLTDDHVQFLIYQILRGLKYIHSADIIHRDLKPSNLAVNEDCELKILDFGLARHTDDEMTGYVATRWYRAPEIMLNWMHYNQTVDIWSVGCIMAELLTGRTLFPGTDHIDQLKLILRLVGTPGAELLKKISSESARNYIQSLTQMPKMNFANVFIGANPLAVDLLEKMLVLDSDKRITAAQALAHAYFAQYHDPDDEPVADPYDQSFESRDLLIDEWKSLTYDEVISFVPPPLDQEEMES
Chain of MKNK2 (human) (Q9HBH9 whole entry, looked up): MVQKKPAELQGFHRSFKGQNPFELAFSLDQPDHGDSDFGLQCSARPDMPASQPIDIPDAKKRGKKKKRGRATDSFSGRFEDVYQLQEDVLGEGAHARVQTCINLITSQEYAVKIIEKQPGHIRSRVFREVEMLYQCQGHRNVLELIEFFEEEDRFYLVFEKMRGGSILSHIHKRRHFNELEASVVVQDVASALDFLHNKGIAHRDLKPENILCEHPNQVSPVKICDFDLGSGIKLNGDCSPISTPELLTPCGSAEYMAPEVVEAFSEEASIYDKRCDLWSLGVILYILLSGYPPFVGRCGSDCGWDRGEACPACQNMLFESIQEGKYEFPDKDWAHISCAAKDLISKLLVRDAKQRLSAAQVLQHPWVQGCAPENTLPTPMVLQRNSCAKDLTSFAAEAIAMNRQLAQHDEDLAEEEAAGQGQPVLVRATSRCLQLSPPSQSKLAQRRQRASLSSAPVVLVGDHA

NC(=O)c1cc(-c2ccnc(NC3CCCCC3)c2)nc(N2CCNCC2)c1 gave a residual activity (CDK2 CCNA2 (human); compound 0.1 µM) of 66%, a residual activity (CDK2 CCNA2 (human); compound 1.0 µM) of 30% and a residual activity (CDK2 CCNA2 (human); compound 10.0 µM) of 11%. For the same compound, the residual activity (MAPK3 (human); compound 0.1 µM) was 78%, the residual activity (MAPK3 (human); compound 1.0 µM) was 34% and the residual activity (MAPK3 (human); compound 10.0 µM) was 10%. For the same compound, the residual activity (MKNK2 (human); compound 0.1 µM) was 76%, the residual activity (MKNK2 (human); compound 1.0 µM) was 31% and the residual activity (MKNK2 (human); compound 10.0 µM) was 6%. It also gave a residual activity (EPHB1 (human); compound 0.1 µM) of 96%, a residual activity (EPHB1 (human); compound 1.0 µM) of 111% and a residual activity (EPHB1 (human); compound 10.0 µM) of 99%. For the same compound, the residual activity (TTK (human); compound 0.1 µM) was 111%, the residual activity (TTK (human); compound 1.0 µM) was 87% and the residual activity (TTK (human); compound 10.0 µM) was 79%. It also gave a residual activity (MAP2K1 (human); compound 0.1 µM) of 86%, a residual activity (MAP2K1 (human); compound 1.0 µM) of 77% and a residual activity (MAP2K1 (human); compound 10.0 µM) of 49%. The residual activity (MAPK14 (human); compound 0.1 µM) was 104%, the residual activity (MAPK14 (human); compound 1.0 µM) was 116% and the residual activity (MAPK14 (human); compound 10.0 µM) was 103%. The residual activity (MAPK15 (human); compound 0.1 µM) was 63%, the residual activity (MAPK15 (human); compound 1.0 µM) was 26% and the residual activity (MAPK15 (human); compound 10.0 µM) was 4%. For the same compound, the residual activity (PRKAA1 or PRKAA2 (rat); compound 0.1 µM) was 97%, the residual activity (PRKAA1 or PRKAA2 (rat); compound 1.0 µM) was 61% and the residual activity (PRKAA1 or PRKAA2 (rat); compound 10.0 µM) was 20%. It also gave a residual activity (RPS6KA3 KD1 KD2 (human); compound 0.1 µM) of 98%, a residual activity (RPS6KA3 KD1 KD2 (human); compound 10.0 µM) of 81% and a residual activity (RPS6KA1 KD1 KD2 (human); compound 0.1 µM) of 88%. The residual activity (RPS6KA1 KD1 KD2 (human); compound 1.0 µM) was 53%, the residual activity (RPS6KA1 KD1 KD2 (human); compound 10.0 µM) was 2% and the residual activity (IKBKE (human); compound 0.1 µM) was 98%. The residual activity (IKBKE (human); compound 1.0 µM) was 87%, the residual activity (IKBKE (human); compound 10.0 µM) was 48% and the residual activity (PAK7 (human); compound 0.1 µM) was 97%. It also gave a residual activity (PAK7 (human); compound 1.0 µM) of 90%, a residual activity (PAK7 (human); compound 10.0 µM) of 71% and a residual activity (EPHB4 (human); compound 0.1 µM) of 103%. It also gave a residual activity (EPHB4 (human); compound 10.0 µM) of 91%, a residual activity (EPHA4 (human); compound 0.1 µM) of 90% and a residual activity (EPHA4 (human); compound 1.0 µM) of 78%. For the same compound, the residual activity (EPHA4 (human); compound 10.0 µM) was 48%, the residual activity (RIPK2 (human); compound 0.1 µM) was 96% and the residual activity (RIPK2 (human); compound 1.0 µM) was 96%. The residual activity (RIPK2 (human); compound 10.0 µM) was 79%, the residual activity (NEK2 (human); compound 0.1 µM) was 111% and the residual activity (NEK2 (human); compound 1.0 µM) was 129%. It also gave a residual activity (NEK2 (human); compound 10.0 µM) of 113%, a residual activity (CSNK1D (human); compound 0.1 µM) of 75% and a residual activity (CSNK1D (human); compound 1.0 µM) of 42%. It also gave a residual activity (CSNK1D (human); compound 10.0 µM) of 18%, a residual activity (FLT1 (human); compound 0.1 µM) of 95% and a residual activity (FLT1 (human); compound 1.0 µM) of 88%. The residual activity (FLT1 (human); compound 10.0 µM) was 68%, the residual activity (BTK (human); compound 0.1 µM) was 92% and the residual activity (BTK (human); compound 1.0 µM) was 120%. It also gave a residual activity (BTK (human); compound 10.0 µM) of 79%, a residual activity ([1]; compound 0.1 µM) of 97% and a residual activity ([1]; compound 1.0 µM) of 57%. It also gave a residual activity ([1]; compound 10.0 µM) of 3%, a residual activity (CHEK2 (human); compound 0.1 µM) of 102% and a residual activity (CHEK2 (human); compound 1.0 µM) of 106%. It also gave a residual activity (CHEK2 (human); compound 10.0 µM) of 88%, a residual activity (RPS6KA5 KD1 KD2 (human); compound 0.1 µM) of 97% and a residual activity (RPS6KA5 KD1 KD2 (human); compound 1.0 µM) of 109%. It also gave a residual activity (RPS6KA5 KD1 KD2 (human); compound 10.0 µM) of 79%, a residual activity (PRKACA (human); compound 0.1 µM) of 105% and a residual activity (PRKACA (human); compound 1.0 µM) of 109%. The residual activity (PRKACA (human); compound 10.0 µM) was 93%, the residual activity (MAPK1 (human); compound 0.1 µM) was 36% and the residual activity (MAPK1 (human); compound 1.0 µM) was 29%. The residual activity (MAPK1 (human); compound 10.0 µM) was 6%, the residual activity (MAPKAPK3 (human); compound 0.1 µM) was 92% and the residual activity (MAPKAPK3 (human); compound 1.0 µM) was 100%. The residual activity (MAPKAPK3 (human); compound 10.0 µM) was 92%, the residual activity (IKBKB (human); compound 0.1 µM) was 85% and the residual activity (IKBKB (human); compound 1.0 µM) was 50%. For the same compound, the residual activity (IKBKB (human); compound 10.0 µM) was 23%, the residual activity (PIM2 (human); compound 0.1 µM) was 99% and the residual activity (PIM2 (human); compound 1.0 µM) was 102%. It also gave a residual activity (PIM2 (human); compound 10.0 µM) of 99%, a residual activity (PLK1 (human); compound 0.1 µM) of 101% and a residual activity (PLK1 (human); compound 1.0 µM) of 117%. It also gave a residual activity (PLK1 (human); compound 10.0 µM) of 111%, a residual activity ([2]; compound 0.1 µM) of 92% and a residual activity ([2]; compound 1.0 µM) of 96%. It also gave a residual activity ([2]; compound 10.0 µM) of 94%, a residual activity (SYK (human); compound 0.1 µM) of 90% and a residual activity (SYK (human); compound 1.0 µM) of 104%. The residual activity (SYK (human); compound 10.0 µM) was 92%, the residual activity (CSK (human); compound 0.1 µM) was 113% and the residual activity (CSK (human); compound 1.0 µM) was 116%. It also gave a residual activity (CSK (human); compound 10.0 µM) of 90%, a residual activity (INSRR (human); compound 0.1 µM) of 100% and a residual activity (INSRR (human); compound 1.0 µM) of 107%. The residual activity (INSRR (human); compound 10.0 µM) was 97%, the residual activity (SRC (human); compound 0.1 µM) was 106% and the residual activity (SRC (human); compound 1.0 µM) was 90%. It also gave a residual activity (SRC (human); compound 10.0 µM) of 66%, a residual activity (NEK6 (human); compound 0.1 µM) of 86% and a residual activity (NEK6 (human); compound 1.0 µM) of 87%. The residual activity (NEK6 (human); compound 10.0 µM) was 42%.
